This is an account of results in publication PMC12032302, “A20 attenuates oxidized self-DNA-mediated inflammation in acute kidney injury” (Signal Transduction and Targeted Therapy, 2025).

The subject of experiment [1] is IL-1β. The experiment can be described thus: serum IL-1β of AKI mice (ELISA). It is filed as in vivo, mouse. Particulars: Cis or AA I AKI mice; DNase I 10 mg/kg i.p. The procedure: Aristolochic acid I sodium salt was dissolved in PBS to 1 mg/mL and injected intraperitoneally at a dose of 10 mg/kg (body weight) every 24 h for 3 days; cisplatin was dissolved in PBS to 1.5 mg/mL for one-time intraperitoneal 25 mg/kg injection; LPS (Sigma, Cat#L2630) was dissolved in PBS to 2.5 mg/mL for one-time intraperitoneal 25 mg/kg injection; deoxyribonuclease I (DNase I, Sigma, Cat#SLBV1446) was dissolved in PBS to 1 mg/mL and injected intraperitoneally at a dose of 10 mg/kg at 4 h before cisplatin or AA I injection and every 24 h after injection. Disulfiram (MedChemExpress, CAS:97-77-8) was diluted in corn oil to 12.5 mg/mL and injected 50 mg/kg intraperitoneally every 24 h after cisplatin or AA I administration. Cu(II) (Sigma, Cat#344419) was dissolved in PBS to 30 µg/mL and administered intraperitoneally 6 h before disulfiram at a dose of 0.15 mg/kg; TNF-α (Peprotech, Cat#315-01 A) was dissolved in PBS to 10 µg/mL and injected at 100 µg/kg once through the caudal vein 24 h before cisplatin injection. […]
To measure the levels of CXCL10, IFN-β, IL-1β, and IL-18, mouse serum or cell culture medium was collected and measured by ELISA (NeoBioscience, China) according to the manufacturer’s instructions.

Experiment [2] deals with AKI mice. The experiment can be described thus: overall therapeutic effect in AKI mice. The note with it: for alleviation of AKI compared with MCC950: DNase I, disulfiram vs NLRP3 inhibitor MCC950. It is filed as in vivo, mouse. The procedure: (§1) Aristolochic acid I sodium salt was dissolved in PBS to 1 mg/mL and injected intraperitoneally at a dose of 10 mg/kg (body weight) every 24 h for 3 days; cisplatin was dissolved in PBS to 1.5 mg/mL for one-time intraperitoneal 25 mg/kg injection; LPS (Sigma, Cat#L2630) was dissolved in PBS to 2.5 mg/mL for one-time intraperitoneal 25 mg/kg injection; deoxyribonuclease I (DNase I, Sigma, Cat#SLBV1446) was dissolved in PBS to 1 mg/mL and injected intraperitoneally at a dose of 10 mg/kg at 4 h before cisplatin or AA I injection and every 24 h after injection. Disulfiram (MedChemExpress, CAS:97-77-8) was diluted in corn oil to 12.5 mg/mL and injected 50 mg/kg intraperitoneally every 24 h after cisplatin or AA I administration. Cu(II) (Sigma, Cat#344419) was dissolved in PBS to 30 µg/mL and administered intraperitoneally 6 h before disulfiram at a dose of 0.15 mg/kg; TNF-α (Peprotech, Cat#315-01 A) was dissolved in PBS to 10 µg/mL and injected at 100 µg/kg once through the caudal vein 24 h before cisplatin injection. Metformin (Sigma, Cat#D150959) was dissolved in PBS to 5 mg/mL and injected intraperitoneally at a dose of 50 mg/kg 24 h before cisplatin or AA I injection and every 24 h after injection. MCC950 (MedChem Express, CAS:256373-96-3) was dissolved in PBS to 5 mg/mL and injected intraperitoneally at a dose of 50 mg/kg 12 h before cisplatin or AA I injection and every 12 h after injection; berberine (APExBIO, Cat#N1368) was dissolved in PBS to 5 mg/mL and 5 mg/kg injected intraperitoneally at 36, 24 and 12 h before cisplatin; A20-derived-peptide was dissolved in ddH2O to 3 mg/mL and injected intraperitoneally at a dose of 15 mg/kg 1 h before cisplatin. To supervise the effects of various treatments on survival time and rate, the mice were observed, and survival curves were generated. To investigate the specific mechanisms, whole blood was retrieved from the orbit, serum was separated through centrifugation on the 4th day, and the mice were then sacrificed by cervical dislocation. Mice were randomly assigned in experiments, while there was no blinding during the animal experiments.

Experiment [3] concerns A20. The experiment can be described thus: A20 protein expression in iBMDMs / BMDMs (immunoblot). Format: cell-based, mouse. The procedure: (§2) For immunoblot analysis of kidney tissue, total protein lysates were prepared from renal tissue, which was ground in liquid nitrogen and then added to lysis buffer in a Total Protein Extraction Kit (Signalway Antibody, Cat#PE001). Samples were centrifuged at 12,000 rpm for 15 min at 4 °C, and the supernatant was collected immediately. For immunoblot analysis of cells, cultured cells after treatment were lysed with lysis buffer, which was premixed with protease and phosphatase inhibitors (Signalway Antibody, Cat#PE001). The samples were centrifuged at 12,000 r/min for 15 min at 4 °C, and the supernatant was collected immediately. Ultimately, both types of protein samples were then mixed with 4× Laemmli loading buffer (Bio-Rad, Cat#1610747) and denatured by boiling at 95 °C for 5 min.
Prepared protein samples were subjected to 6-15% SDS polyacrylamide gels and separated according to the protein concentrations. Then, the protein bands were transferred to polyvinylidene difluoride (PVDF) membranes by a wet transfer apparatus (Bio-Rad, USA). […] The protein bands were detected with an enhanced chemiluminescence kit (Millipore, Cat#WBKLS0500) using a gel imaging system (Bio-Rad, USA) for visualization and standardization of the amount of protein loaded. α-Tubulin was used as the internal control.

Experiment [4] deals with Tnfaip3 mRNA. The experiment can be described thus: Tnfaip3 mRNA in iBMDMs (quantitative PCR). It is filed as cell-based, mouse. Particulars: ox-dsDNA90 or CDNs, BAY11-7082 1 μM, 4 h pretreated, Fig. 4j,k, n = 3. The procedure: Total RNA was extracted from around 1 × 10^6 cultured cells per population and purified by employing an RNA simple Total RNA Kit (TIANGEN, Cat#DP419), Following column purification, RNA was immediately reversed to cDNA by implementing the PrimeScript reverse transcription reagent kit (Takara, RR047A) according to the manufacturer’s instructions. The concentration of RNA was measured with a NanoDrop 2000 (Thermo Fisher Scientific, USA). Reverse transcription polymerase chain reaction (qRT‒PCR) was performed using SYBR Premix Ex Taq (Takara, CAT#172-5124) in an ABI7500 real-time PCR system (Applied Biosystems, CA). The primer sequences are shown in Supplementary Table 2. Relative gene expression was presented as fold changes normalized by Gapdh using the 2^−ΔΔCt method.

The test system of experiment [5] is AKI mice. The experiment can be described thus: survival of AKI mice. Format: in vivo, mouse. The note with it: n = 10 per group. Here is the method:
as §1

For experiment [6], the system named is AKI mice. The experiment can be described thus: serum creatinine of AKI mice. Particulars: mice following injection of cisplatin; berberine 5 mg/kg i.p.; vs PBS. Format: in vivo, mouse. Here is the method: (§3) LPS (Sigma, Cat#L2630) was dissolved in PBS to 2.5 mg/mL for one-time intraperitoneal 25 mg/kg injection; deoxyribonuclease I (DNase I, Sigma, Cat#SLBV1446) was dissolved in PBS to 1 mg/mL and injected intraperitoneally at a dose of 10 mg/kg at 4 h before cisplatin or AA I injection and every 24 h after injection. Disulfiram (MedChemExpress, CAS:97-77-8) was diluted in corn oil to 12.5 mg/mL and injected 50 mg/kg intraperitoneally every 24 h after cisplatin or AA I administration. Cu(II) (Sigma, Cat#344419) was dissolved in PBS to 30 µg/mL and administered intraperitoneally 6 h before disulfiram at a dose of 0.15 mg/kg; TNF-α (Peprotech, Cat#315-01 A) was dissolved in PBS to 10 µg/mL and injected at 100 µg/kg once through the caudal vein 24 h before cisplatin injection. […] MCC950 (MedChem Express, CAS:256373-96-3) was dissolved in PBS to 5 mg/mL and injected intraperitoneally at a dose of 50 mg/kg 12 h before cisplatin or AA I injection and every 12 h after injection; berberine (APExBIO, Cat#N1368) was dissolved in PBS to 5 mg/mL and 5 mg/kg injected intraperitoneally at 36, 24 and 12 h before cisplatin; […] To supervise the effects of various treatments on survival time and rate, the mice were observed, and survival curves were generated. To investigate the specific mechanisms, whole blood was retrieved from the orbit, serum was separated through centrifugation on the 4th day, and the mice were then sacrificed by cervical dislocation. Mice were randomly assigned in experiments, while there was no blinding during the animal experiments. Renal function was evaluated based on serum creatinine level and histological features. Serum creatinine was determined in the Clinical Pharmacology Lab, Clinical Trial Center, WCH, SCU. The kidneys were extracted from euthanized mice, immediately fixed with 4% paraformaldehyde, and embedded in paraffin. Furthermore, the samples were cut into 5 µm thick sections. These tissue samples were subjected to hematoxylin-eosin (HE) and […] according to standard protocols with HE reagent (Biosharp, Cat#BL702B, BL703B) and Masson reagent (Servicebio, Cat#G1006-100ML). The pathological changes were detected through optical microscopy, and the tubulointerstitial injury score was determined as previously reported.

Experiment [7] deals with AKI mice. The experiment can be described thus: tubular injury / renal injury of AKI mice (HE histology). It is filed as in vivo, mouse. Here is the method: as §3
The subject of experiment [8] is AKI mice. The experiment can be described thus: renal fibrosis of AKI mice (Masson staining). It is filed as in vivo, mouse. The note with it: mice following injection of cisplatin; berberine 5 mg/kg i.p.; vs PBS. The procedure:
LPS (Sigma, Cat#L2630) was dissolved in PBS to 2.5 mg/mL for one-time intraperitoneal 25 mg/kg injection; deoxyribonuclease I (DNase I, Sigma, Cat#SLBV1446) was dissolved in PBS to 1 mg/mL and injected intraperitoneally at a dose of 10 mg/kg at 4 h before cisplatin or AA I injection and every 24 h after injection. Disulfiram (MedChemExpress, CAS:97-77-8) was diluted in corn oil to 12.5 mg/mL and injected 50 mg/kg intraperitoneally every 24 h after cisplatin or AA I administration. Cu(II) (Sigma, Cat#344419) was dissolved in PBS to 30 µg/mL and administered intraperitoneally 6 h before disulfiram at a dose of 0.15 mg/kg; TNF-α (Peprotech, Cat#315-01 A) was dissolved in PBS to 10 µg/mL and injected at 100 µg/kg once through the caudal vein 24 h before cisplatin injection. […] Renal function was evaluated based on serum creatinine level and histological features. Serum creatinine was determined in the Clinical Pharmacology Lab, Clinical Trial Center, WCH, SCU. […] The pathological changes were detected through optical microscopy, and the tubulointerstitial injury score was determined as previously reported.

The subject of experiment [9] is NEK7. The note with it: cited from earlier work. The source says: Furthermore, we investigated the potential therapeutic medicines targeting to NEK7 and evaluated their effects on alleviating AKI. […] A ...
Experiment [10] concerns GSDMD cleavage in iBMDMs. The experiment can be described thus: cleavage of GSDMD in iBMDMs after ox-self-DNA treatment (immunoblot). It is filed as cell-based, mouse. Particulars: AA-DNA with or without MCC950, Fig. 3i. Here is the method:
as §2, with “Ultimately, both types of protein samples were then mixed with 4× Laemmli loading buffer (Bio-Rad, Cat#1610747) and denatured by boiling at 95 °C for 5 min.” left out
Prepared protein samples were subjected to 6-15% SDS polyacrylamide gels and separated according to the protein concentrations. […] The protein bands were detected with an enhanced chemiluminescence kit (Millipore, Cat#WBKLS0500) using a gel imaging system (Bio-Rad, USA) for visualization and standardization of the amount of protein loaded. α-Tubulin was used as the internal control.
Self-DNA was isolated from the mouse kidney tissue using a DNeasy®Blood & Tissue Kit (QIAGEN, REF#69504) according to the manufacturer’s instructions. The isolated self-DNA were mixed with PicoGreen reagent, and then detected via employing SpectraMax iD3 microplate reader (Molecular Devices), with 502 nm incident ray and 523 nm emergent light. […]

In the case of deoxyribonuclease I [DNase I], the “serum level of IL-1β (in words)” value in experiment [1] is reported as “significantly reduced serum level of IL-1β”. Further, the “therapeutic effect compared to Sting-knockout mice” value in [2] (DNase I 10 mg/kg i.p. 4 h before cisplatin or AA I and every 24 h after) is given as “more pronounced compared to that in Sting^−/− mice”. Further, the “alleviation of AKI compared with MCC950” value in experiment [2] is on record as “more effective in alleviating AKI than the NLRP3 inhibitor MCC950”.
With `Cc1ccc(S(=O)(=O)/C=C/C#N)cc1` [BAY11-7082], in [3] (iBMDMs, ox-dsDNA90 or CDNs, BAY11-7082 1 μM, 4 h pretreated, Fig. 4l), the “increased expression of A20, protein level” value was “almost completely inhibited the increased expression of A20 at both the mRNA and protein levels”. For the same molecule, in [3] (ox-DNA stimulation, BAY11-7082, discussion), the “increased expression of A20 under ox-DNA stimulation” value was “abrogated”. Also, the “increased expression of A20, mRNA level” value in experiment [4] is “almost completely inhibited the increased expression of A20 at both the mRNA and protein levels”.
For `COc1ccc2cc3[n+](cc2c1OC)CCc1cc2c(cc1-3)OCO2` [berberine], the survival entry in experiment [5] (mice following injection of cisplatin, berberine 5 mg/kg i.p. at 36, 24 and 12 h before, vs PBS) was “improved survival”. Also, the “serum creatinine (in words)” value in experiment [6] was “decreased serum creatinine”. Besides, the “renal injury (in words)” value in experiment [7] (mice following injection of cisplatin, berberine 5 mg/kg i.p., vs PBS) was “attenuated renal injury”. In addition, the renal fibrosis entry in experiment [8] was “decreased renal fibrosis”. Also, in experiment [9], the “NEK7 activity (literature)” value is “inhibit NEK7 activity”.
Turning to `CC(C)(O)c1coc(S(=O)(=O)NC(=O)Nc2c3c(cc4c2CCC4)CCC3)c1` [MCC950], the survival result in experiment [5] (mice treated with nephrotoxic drugs (Cis, AA I), MCC950 50 mg/kg i.p. 12 h before and every 12 h after) is “improved the survival”. Further, the “tubular injury (in words)” value in [7] (mice treated with nephrotoxic drugs (Cis, AA I), MCC950 50 mg/kg i.p.) is given as “attenuate tubular injury”. For the same molecule, in experiment [2] (MCC950 50 mg/kg i.p.), the “progression of AKI” value was “significantly alleviated the progression of AKI”. For the same molecule, in [10], the “cleavage of GSDMD” value is listed as “significantly reduced the cleavage of GSDMD”.
As to `CCN(CC)C(=S)SSC(=S)N(CC)CC` [disulfiram, Disulfiram], the survival entry in experiment [5] (Cis or AA I mice, disulfiram 50 mg/kg i.p. every 24 h, Cu(II) 0.15 mg/kg i.p. 6 h before disulfiram) was “improved survival with effects comparable to those of DNase I”. The “alleviation of AKI compared with MCC950” value in experiment [2] is “more effective in alleviating AKI than the NLRP3 inhibitor MCC950”.
